Test results: the NIST ThermoML archive (doi:10.1016/j.jct.2019.01.024)

Test: mn = molality of the nth substance listed, in mol/kg
Conditions: 101 kPa, Liquid; for viscosity: Falling or rolling sphere viscometry; for speed of sound: Frequency=3 MHz, Single path-length method; for mass density: Vibrating tube method

NNC(=O)c1ccncc1 [isonicotinic acid hydrazide] + O
Conditions | mass density [kg/m3] | speed of sound [m/s] | viscosity [mPa·s]
293.15 K, m1 = 0.0255 | 999.11 | 1485.3 | 1.006
293.15 K, m1 = 0.0494 | 999.92 | 1486.9 | 1.012
293.15 K, m1 = 0.0754 | 1000.8 | 1488.6 | 1.018
293.15 K, m1 = 0.1 | 1001.64 | – | 1.024
293.15 K, m1 = 0.1253 | 1002.5 | 1491.8 | 1.03
293.15 K, m1 = 0.15 | 1003.35 | 1493.4 | 1.037
293.15 K, m1 = 0.2002 | 1005.07 | 1496.5 | 1.049
293.15 K, m1 = 0.2492 | 1006.75 | 1499.4 | 1.062
293.15 K, m1 = 0.3001 | 1008.5 | 1502.4 | 1.075
293.15 K, m1 = 0.3489 | 1010.18 | 1505.1 | 1.088
293.15 K, m1 = 0.4003 | 1011.96 | 1507.9 | 1.102
298.15 K, m1 = 0.0255 | 997.93 | 1498.6 | 0.8937
298.15 K, m1 = 0.0494 | 998.74 | 1500.2 | 0.8984
298.15 K, m1 = 0.0754 | 999.61 | 1501.9 | 0.9036
298.15 K, m1 = 0.1 | 1000.45 | – | 0.9086
298.15 K, m1 = 0.1253 | 1001.3 | 1505.1 | 0.9138
298.15 K, m1 = 0.15 | 1002.14 | 1506.6 | 0.9191
298.15 K, m1 = 0.2002 | 1003.84 | 1509.7 | 0.9298
298.15 K, m1 = 0.2492 | 1005.51 | 1512.6 | 0.9401
298.15 K, m1 = 0.3001 | 1007.25 | 1515.6 | 0.951
298.15 K, m1 = 0.3489 | 1008.91 | 1518.4 | 0.9616
298.15 K, m1 = 0.4003 | 1010.67 | 1521.3 | 0.9729
303.15 K, m1 = 0.0255 | 996.53 | 1510.1 | 0.8001
303.15 K, m1 = 0.0494 | 997.34 | 1511.6 | 0.804
303.15 K, m1 = 0.0754 | 998.21 | 1513.3 | 0.8084
303.15 K, m1 = 0.1 | 999.03 | – | 0.8125
303.15 K, m1 = 0.1253 | 999.88 | 1516.4 | 0.8169
303.15 K, m1 = 0.15 | 1000.71 | 1517.9 | 0.8213
303.15 K, m1 = 0.2002 | 1002.4 | 1521 | 0.8301
303.15 K, m1 = 0.2492 | 1004.05 | 1523.9 | 0.8389
303.15 K, m1 = 0.3001 | 1005.77 | 1526.9 | 0.8482
303.15 K, m1 = 0.3489 | 1007.42 | 1529.7 | 0.8571
303.15 K, m1 = 0.4003 | 1009.16 | 1532.6 | 0.8661
308.15 K, m1 = 0.0255 | 994.92 | 1521.4 | 0.7213
308.15 K, m1 = 0.0494 | 995.72 | 1522.9 | 0.7246
308.15 K, m1 = 0.0754 | 996.58 | 1524.5 | 0.7282
308.15 K, m1 = 0.1 | 997.4 | – | 0.7317
308.15 K, m1 = 0.1253 | 998.25 | 1527.6 | 0.7353
308.15 K, m1 = 0.15 | 999.08 | 1529.1 | 0.7389
308.15 K, m1 = 0.2002 | 1000.75 | 1532.2 | 0.7463
308.15 K, m1 = 0.2492 | 1002.39 | 1535.1 | 0.7537
308.15 K, m1 = 0.3001 | 1004.1 | 1538.1 | 0.7612
308.15 K, m1 = 0.3489 | 1005.74 | 1540.9 | 0.7687
308.15 K, m1 = 0.4003 | 1007.46 | 1543.8 | 0.7765
313.15 K, m1 = 0.0255 | 993.1 | 1528.4 | 0.6545
313.15 K, m1 = 0.0494 | 993.89 | 1529.8 | 0.6572
313.15 K, m1 = 0.0754 | 994.75 | 1531.4 | 0.6602
313.15 K, m1 = 0.1 | 995.57 | – | 0.6632
313.15 K, m1 = 0.1253 | 996.41 | 1534.4 | 0.6663
313.15 K, m1 = 0.15 | 997.23 | 1535.8 | 0.6693
313.15 K, m1 = 0.2002 | 998.9 | 1538.8 | 0.6756
313.15 K, m1 = 0.2492 | 1000.53 | 1541.7 | 0.6818
313.15 K, m1 = 0.3001 | 1002.22 | 1544.6 | 0.6882
313.15 K, m1 = 0.3489 | 1003.84 | 1547.3 | 0.6944
313.15 K, m1 = 0.4003 | 1005.55 | 1550.2 | 0.7007
318.15 K, m1 = 0.0255 | 991.08 | 1534.5 | 0.5987
318.15 K, m1 = 0.0494 | 991.87 | 1535.9 | 0.6009
318.15 K, m1 = 0.0754 | 992.73 | 1537.4 | 0.6034
318.15 K, m1 = 0.1 | 993.54 | – | 0.6058
318.15 K, m1 = 0.1253 | 994.38 | 1540.3 | 0.6084
318.15 K, m1 = 0.15 | 995.19 | 1541.7 | 0.611
318.15 K, m1 = 0.2002 | 996.85 | 1544.5 | 0.6163
318.15 K, m1 = 0.2492 | 998.46 | 1547.3 | 0.6215
318.15 K, m1 = 0.3001 | 1000.14 | 1550.2 | 0.6268
318.15 K, m1 = 0.3489 | 1001.75 | 1552.9 | 0.6321
318.15 K, m1 = 0.4003 | 1003.44 | 1555.7 | 0.6375

O [water] + NNC(=O)c1ccncc1
m2 = 0
Conditions | mass density [kg/m3] | speed of sound [m/s] | viscosity [mPa·s]
293.15 K | – | 1483.6 | 1.002
298.15 K | – | – | 0.8903
303.15 K | – | 1508.4 | 0.7973
308.15 K | 994.07 | – | 0.719
313.15 K | – | 1526.8 | 0.6526
318.15 K | – | 1533 | 0.5972
